Consider three compounds from ChEMBL document CHEMBL5649166, “RIP3 induces apoptosis independent of pronecrotic kinase activity” (Mol Cell, 2014).

Assay [1] concerns the target Serine/threonine-protein kinase WNK3 (Homo sapiens) (UniProt Q9BYP7). Briefly: Inhibition of human WNK3 using myelin basic protein as substrate at 1 uM in presence of 32P-ATP by Hotspot assay relative to control; values are per cent of control.
The target in assay [2] is T1, Serine/threonine-protein kinase TBK1 (Homo sapiens) (UniProt Q9UHD2).
T1 sequence (whole entry): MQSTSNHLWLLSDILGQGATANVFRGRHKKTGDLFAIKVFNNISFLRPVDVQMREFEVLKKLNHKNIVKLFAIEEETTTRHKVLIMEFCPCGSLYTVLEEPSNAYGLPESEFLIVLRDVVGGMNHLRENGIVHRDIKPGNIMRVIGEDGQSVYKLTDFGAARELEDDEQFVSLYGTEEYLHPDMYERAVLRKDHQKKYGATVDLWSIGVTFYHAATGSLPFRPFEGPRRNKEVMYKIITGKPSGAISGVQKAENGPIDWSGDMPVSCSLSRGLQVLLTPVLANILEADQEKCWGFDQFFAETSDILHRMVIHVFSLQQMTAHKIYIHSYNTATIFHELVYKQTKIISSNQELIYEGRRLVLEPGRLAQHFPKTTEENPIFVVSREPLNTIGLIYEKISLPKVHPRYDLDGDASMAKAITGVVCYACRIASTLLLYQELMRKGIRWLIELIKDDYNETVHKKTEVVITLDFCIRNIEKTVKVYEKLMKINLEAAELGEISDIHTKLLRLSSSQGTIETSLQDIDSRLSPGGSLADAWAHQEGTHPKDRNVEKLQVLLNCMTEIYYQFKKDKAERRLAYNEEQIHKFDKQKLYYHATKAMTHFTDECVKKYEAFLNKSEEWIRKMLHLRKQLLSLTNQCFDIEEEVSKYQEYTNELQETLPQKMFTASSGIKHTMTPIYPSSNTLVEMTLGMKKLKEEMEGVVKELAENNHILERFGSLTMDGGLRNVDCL
Briefly: Inhibition of human TBK1 using myelin basic protein as substrate at 1 uM in presence of 32P-ATP by Hotspot assay relative to control; values are per cent of control.

The target of assay [3] is T2, MAP/microtubule affinity-regulating kinase 4 (Homo sapiens) (UniProt Q96L34).
T2 sequence (whole entry): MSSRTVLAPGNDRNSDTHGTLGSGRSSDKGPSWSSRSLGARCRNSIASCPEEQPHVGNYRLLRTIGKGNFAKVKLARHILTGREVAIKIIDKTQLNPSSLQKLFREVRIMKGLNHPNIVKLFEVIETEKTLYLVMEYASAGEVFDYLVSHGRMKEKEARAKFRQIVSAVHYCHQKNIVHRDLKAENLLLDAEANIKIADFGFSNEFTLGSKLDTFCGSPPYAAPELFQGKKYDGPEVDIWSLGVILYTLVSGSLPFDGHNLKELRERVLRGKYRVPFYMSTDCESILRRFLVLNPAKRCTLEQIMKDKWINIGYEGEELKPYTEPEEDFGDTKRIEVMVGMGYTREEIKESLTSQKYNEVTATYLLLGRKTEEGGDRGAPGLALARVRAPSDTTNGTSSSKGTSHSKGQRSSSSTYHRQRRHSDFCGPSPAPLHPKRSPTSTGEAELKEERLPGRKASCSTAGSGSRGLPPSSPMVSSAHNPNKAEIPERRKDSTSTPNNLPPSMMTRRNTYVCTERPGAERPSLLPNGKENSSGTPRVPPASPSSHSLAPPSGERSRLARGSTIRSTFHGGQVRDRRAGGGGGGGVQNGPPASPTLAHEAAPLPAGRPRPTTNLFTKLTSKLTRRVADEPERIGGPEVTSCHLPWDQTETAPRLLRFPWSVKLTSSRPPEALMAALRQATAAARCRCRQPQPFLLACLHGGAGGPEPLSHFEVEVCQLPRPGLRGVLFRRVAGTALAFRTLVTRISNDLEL
Briefly: Inhibition of human MARK4 using KKKVSRSGLYRSPSMPENLNRPR as substrate at 1 uM in presence of 32P-ATP by Hotspot assay relative to control; values are per cent of control.

Assay [4] concerns the target Insulin-like growth factor 1 receptor (Homo sapiens) (UniProt P08069). Put plainly: Inhibition of human IGF1R using KKKSPGEYVNIEFG as substrate at 1 uM in presence of 32P-ATP by Hotspot assay relative to control; values are per cent of control.
Assay [5] has as its target SRSF protein kinase 2 (Homo sapiens) (UniProt P78362). Put plainly: Inhibition of human SRPK2 using GRSRSRSRSR as substrate at 1 uM in presence of 32P-ATP by Hotspot assay relative to control; values are per cent of control.
Assay [6] deals with CDK4/Cyclin D3 (Homo sapiens) (UniProt P11802+P30281). Briefly: Inhibition of human CDK4/cyclin D3 using RB-CTF as substrate at 1 uM in presence of 32P-ATP by Hotspot assay relative to control; values are per cent of control.
The target in assay [7] is T3, Dual specificity tyrosine-phosphorylation-regulated kinase 2 (Homo sapiens) (UniProt Q92630).
T3 sequence (whole entry): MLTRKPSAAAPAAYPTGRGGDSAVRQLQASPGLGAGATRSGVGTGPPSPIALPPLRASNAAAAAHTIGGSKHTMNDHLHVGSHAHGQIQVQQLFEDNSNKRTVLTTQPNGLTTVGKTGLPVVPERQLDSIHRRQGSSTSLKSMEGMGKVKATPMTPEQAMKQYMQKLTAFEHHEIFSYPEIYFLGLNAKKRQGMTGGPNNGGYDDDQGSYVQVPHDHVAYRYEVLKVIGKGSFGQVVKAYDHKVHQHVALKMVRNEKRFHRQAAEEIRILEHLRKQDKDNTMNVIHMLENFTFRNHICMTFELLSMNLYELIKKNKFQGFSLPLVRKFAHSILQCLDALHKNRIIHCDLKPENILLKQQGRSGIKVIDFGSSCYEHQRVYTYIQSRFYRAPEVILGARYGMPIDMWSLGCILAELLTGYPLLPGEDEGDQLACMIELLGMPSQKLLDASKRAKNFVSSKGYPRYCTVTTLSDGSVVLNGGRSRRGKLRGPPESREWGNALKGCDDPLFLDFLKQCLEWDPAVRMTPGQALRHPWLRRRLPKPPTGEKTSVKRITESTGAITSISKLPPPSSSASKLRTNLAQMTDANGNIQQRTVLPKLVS
Put plainly: Inhibition of human DYRK2 using RRRFRPASPLRGPPK as substrate at 1 uM in presence of 32P-ATP by Hotspot assay relative to control; values are per cent of control.

For assay [8], the target named is High affinity nerve growth factor receptor (Homo sapiens) (UniProt P04629). Briefly: Inhibition of human TRKA using poly[Glu:Tyr] (4:1) as substrate at 1 uM in presence of 32P-ATP by Hotspot assay relative to control.
High affinity nerve growth factor receptor (Homo sapiens), sequence (P04629 33-796 limits assumed): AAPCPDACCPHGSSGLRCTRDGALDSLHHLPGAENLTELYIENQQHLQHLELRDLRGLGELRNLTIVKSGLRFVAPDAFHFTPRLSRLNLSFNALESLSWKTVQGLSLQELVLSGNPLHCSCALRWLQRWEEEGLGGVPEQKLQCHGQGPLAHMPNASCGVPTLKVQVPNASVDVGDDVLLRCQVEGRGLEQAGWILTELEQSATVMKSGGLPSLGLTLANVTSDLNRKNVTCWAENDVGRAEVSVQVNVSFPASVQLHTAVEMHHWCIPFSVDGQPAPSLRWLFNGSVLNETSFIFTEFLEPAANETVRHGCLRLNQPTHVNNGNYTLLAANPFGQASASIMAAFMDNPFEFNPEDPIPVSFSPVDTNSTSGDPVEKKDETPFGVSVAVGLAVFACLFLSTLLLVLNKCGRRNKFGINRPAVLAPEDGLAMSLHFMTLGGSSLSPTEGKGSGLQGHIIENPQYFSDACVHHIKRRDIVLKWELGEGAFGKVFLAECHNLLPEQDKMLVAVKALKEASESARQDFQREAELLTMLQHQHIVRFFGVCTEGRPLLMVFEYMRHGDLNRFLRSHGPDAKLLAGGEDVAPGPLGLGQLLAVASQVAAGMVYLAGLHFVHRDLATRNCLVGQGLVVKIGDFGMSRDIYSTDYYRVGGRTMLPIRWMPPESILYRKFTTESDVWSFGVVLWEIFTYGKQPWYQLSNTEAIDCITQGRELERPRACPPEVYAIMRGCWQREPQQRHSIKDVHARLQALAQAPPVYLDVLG

Serine/threonine-protein kinase WNK3 (Homo sapiens), sequence (Q9BYP7 whole entry): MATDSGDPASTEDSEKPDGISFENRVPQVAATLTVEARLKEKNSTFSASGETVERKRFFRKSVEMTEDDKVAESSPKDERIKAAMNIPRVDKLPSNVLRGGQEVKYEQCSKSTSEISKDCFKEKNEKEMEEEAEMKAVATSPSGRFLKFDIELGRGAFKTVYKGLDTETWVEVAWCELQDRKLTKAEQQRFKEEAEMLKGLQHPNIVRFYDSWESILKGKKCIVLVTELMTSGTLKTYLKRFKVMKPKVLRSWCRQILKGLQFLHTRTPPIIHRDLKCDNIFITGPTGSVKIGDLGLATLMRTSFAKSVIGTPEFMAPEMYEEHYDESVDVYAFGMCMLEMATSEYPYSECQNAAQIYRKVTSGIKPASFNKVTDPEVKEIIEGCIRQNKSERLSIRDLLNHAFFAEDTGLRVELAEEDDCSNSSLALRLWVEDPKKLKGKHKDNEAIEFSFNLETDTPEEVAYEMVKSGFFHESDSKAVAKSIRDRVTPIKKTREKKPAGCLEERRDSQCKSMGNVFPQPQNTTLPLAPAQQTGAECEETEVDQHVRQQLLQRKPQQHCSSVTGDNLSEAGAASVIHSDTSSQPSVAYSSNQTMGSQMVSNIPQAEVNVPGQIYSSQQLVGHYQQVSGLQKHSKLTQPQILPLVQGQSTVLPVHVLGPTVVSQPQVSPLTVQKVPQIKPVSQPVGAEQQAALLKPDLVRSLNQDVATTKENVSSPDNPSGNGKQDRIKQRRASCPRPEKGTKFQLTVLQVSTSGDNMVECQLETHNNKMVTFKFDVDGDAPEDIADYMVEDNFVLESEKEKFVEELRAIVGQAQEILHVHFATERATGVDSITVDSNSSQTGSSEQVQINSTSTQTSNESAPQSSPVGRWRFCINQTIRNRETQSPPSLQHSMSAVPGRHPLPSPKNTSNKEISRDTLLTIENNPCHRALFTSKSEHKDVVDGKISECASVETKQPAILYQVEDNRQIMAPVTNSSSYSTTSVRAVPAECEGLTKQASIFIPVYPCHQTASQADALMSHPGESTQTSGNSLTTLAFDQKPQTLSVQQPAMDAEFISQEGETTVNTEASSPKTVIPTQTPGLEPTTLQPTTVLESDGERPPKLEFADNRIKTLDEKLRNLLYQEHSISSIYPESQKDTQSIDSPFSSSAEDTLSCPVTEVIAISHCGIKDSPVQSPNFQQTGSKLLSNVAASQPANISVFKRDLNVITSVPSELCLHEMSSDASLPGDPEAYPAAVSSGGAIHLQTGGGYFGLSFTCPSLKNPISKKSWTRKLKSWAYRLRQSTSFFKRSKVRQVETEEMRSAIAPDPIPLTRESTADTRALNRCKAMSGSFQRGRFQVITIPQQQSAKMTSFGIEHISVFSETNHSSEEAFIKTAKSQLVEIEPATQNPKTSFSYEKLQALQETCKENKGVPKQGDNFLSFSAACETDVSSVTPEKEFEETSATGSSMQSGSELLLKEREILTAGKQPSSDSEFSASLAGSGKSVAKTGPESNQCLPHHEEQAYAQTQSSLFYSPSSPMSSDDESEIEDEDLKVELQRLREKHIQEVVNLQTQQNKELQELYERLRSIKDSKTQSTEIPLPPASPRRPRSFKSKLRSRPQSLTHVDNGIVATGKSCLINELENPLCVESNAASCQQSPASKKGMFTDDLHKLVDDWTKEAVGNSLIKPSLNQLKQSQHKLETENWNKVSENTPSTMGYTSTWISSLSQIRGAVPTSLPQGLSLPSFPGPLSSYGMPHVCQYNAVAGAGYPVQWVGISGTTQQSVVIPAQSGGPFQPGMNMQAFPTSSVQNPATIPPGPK
Insulin-like growth factor 1 receptor (Homo sapiens), sequence (P08069 31-736 limits assumed): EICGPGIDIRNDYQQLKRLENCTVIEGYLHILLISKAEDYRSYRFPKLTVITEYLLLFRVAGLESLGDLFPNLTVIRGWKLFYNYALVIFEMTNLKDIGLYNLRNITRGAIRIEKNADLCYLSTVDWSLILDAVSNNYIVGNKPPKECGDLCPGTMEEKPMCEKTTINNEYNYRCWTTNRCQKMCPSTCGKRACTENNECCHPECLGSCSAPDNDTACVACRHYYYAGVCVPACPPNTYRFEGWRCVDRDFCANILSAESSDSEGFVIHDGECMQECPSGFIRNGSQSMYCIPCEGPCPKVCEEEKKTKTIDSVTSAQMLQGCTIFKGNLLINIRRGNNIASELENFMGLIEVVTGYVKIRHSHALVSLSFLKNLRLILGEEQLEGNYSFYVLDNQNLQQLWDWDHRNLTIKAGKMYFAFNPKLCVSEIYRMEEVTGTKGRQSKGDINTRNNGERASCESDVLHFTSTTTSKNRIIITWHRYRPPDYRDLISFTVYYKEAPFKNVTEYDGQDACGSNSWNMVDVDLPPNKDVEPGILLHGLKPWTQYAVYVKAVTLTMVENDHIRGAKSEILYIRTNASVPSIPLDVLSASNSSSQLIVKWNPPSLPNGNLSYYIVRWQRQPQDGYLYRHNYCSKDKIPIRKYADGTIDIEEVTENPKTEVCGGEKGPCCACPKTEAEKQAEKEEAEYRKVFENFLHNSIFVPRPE
Insulin-like growth factor 1 receptor (Homo sapiens), sequence (P08069 741-1367 limits assumed): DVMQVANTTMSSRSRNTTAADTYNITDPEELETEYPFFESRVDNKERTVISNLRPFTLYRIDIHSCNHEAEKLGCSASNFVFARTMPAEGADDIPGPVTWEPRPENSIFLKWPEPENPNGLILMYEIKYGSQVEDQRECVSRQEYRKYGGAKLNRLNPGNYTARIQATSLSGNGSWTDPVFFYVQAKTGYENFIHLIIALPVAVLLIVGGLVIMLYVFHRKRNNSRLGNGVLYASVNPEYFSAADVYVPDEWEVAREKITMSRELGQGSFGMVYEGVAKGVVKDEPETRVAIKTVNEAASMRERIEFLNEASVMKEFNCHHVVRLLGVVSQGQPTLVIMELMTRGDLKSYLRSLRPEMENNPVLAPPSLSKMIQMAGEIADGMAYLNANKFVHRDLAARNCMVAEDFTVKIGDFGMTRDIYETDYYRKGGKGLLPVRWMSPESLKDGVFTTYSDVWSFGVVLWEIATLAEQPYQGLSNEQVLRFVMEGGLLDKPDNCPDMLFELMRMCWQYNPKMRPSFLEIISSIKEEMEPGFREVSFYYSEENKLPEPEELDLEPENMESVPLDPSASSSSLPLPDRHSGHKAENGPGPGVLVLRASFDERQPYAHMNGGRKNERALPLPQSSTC
SRSF protein kinase 2 (Homo sapiens), sequence (P78362 whole entry, looked up): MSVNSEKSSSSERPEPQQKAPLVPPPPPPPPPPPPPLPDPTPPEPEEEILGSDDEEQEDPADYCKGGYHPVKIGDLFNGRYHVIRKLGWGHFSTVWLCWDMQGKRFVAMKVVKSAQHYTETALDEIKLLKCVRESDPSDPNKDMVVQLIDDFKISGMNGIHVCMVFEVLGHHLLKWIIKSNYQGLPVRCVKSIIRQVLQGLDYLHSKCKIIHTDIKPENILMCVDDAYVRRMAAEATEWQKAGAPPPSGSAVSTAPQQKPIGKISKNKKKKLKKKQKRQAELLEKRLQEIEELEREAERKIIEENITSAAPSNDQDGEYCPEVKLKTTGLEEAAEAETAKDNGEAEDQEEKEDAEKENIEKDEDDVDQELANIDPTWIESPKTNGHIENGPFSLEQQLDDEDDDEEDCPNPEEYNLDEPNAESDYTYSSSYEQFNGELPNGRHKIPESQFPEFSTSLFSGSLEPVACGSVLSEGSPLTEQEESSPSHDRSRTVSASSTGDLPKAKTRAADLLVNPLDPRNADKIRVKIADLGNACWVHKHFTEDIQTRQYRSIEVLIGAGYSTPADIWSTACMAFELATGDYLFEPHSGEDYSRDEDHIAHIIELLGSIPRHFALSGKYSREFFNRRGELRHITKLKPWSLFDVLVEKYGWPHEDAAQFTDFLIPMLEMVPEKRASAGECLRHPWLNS

Regarding `Cc1cc(-c2cnc(N)c3c(-c4ccc5scnc5c4)csc23)n(C)n1`, the residual activity in assay [1] turned out to be 83%; in assay [2], 105%; in assay [3], 86%; in assay [4], 101%; in assay [5], 96.2%; in assay [6] it was 108%. In assay [7], the residual activity came to 78.5%. Besides, in assay [8], the inhibition was determined as 84.7%.

Take `CC(C)S(=O)(=O)c1ccc2nccc(Nc3ccc4scnc4c3)c2c1`: the residual activity in assay [1] was 104%; in assay [2] it was 96.1%; in assay [3], 99.9%; in assay [4], 100%; in assay [5] it was 94%; in assay [6] it was 102%. Also, the residual activity in assay [7] was 101%. Also, the inhibition in assay [8] worked out at 89.3%.

On to `CNC(=O)c1ccc2c(c1)ncn2-c1ccc(CC(=O)OC(C)(C)C)cc1`, for which the residual activity stood at 99.9% in assay [1]; 84.2% in assay [2]; 93.1% in assay [3]; 97.6% in assay [4]; 98.5% in assay [5]; 98.2% in assay [6]. Besides, the residual activity in assay [7] turned out to be 96.1%. In assay [8], the inhibition was determined as 79.5%.

In general, residual activity refers to the signal under treatment as a percentage of the control signal. For orientation: inhibition means the percentage by which the read-out fell short of the control.
